Reference: US5965568A, “Composition for inhibiting production or secretion of amyloid β protein to treat Down's syndrome” (priority 1995, dated 1999)

How the values were obtained:
IMR-32 cells [1] = assay: Evaluation of the cytotoxicity, MTT method, IMR-32 cells; assay type: cell-based, human; settings: 1×10^-4 (maximum concentration used)
Description: The culture supernatant was sampled, and DMEM culture solution (500 μl) containing 1.2 mM MTT {3-(4,5dimethyl-2-thiazolyl)-2,5-diphenyl-2H-tetrazolium bromide} was added. The reaction was carried out for 1 hour at 37° C., and then an equal amount of 10% sodium dodecyl sulfate solution was added. The mixture was gently stirred overnight to dissolve the resulting formazan, and then subjected to colorimetry (wavelength: 550 nm) with a plate reader.
Four wells were used per dose of the drug. The value in the data was represented as a ratio (%) to the control group. Dunnett's t test was used for the statistical analysis.

[2] = test system: Aβ (1-42) production and secretion in IMR-32 cells; assay: Inhibitory activity against Aβ (1-42) production or secretion in human neuroblastoma IMR-32 cells (EIA, BAN-50/BC-05); assay type: cell-based; settings: not a significant change
Description: (§1) Studies on Aβ production or secretion in human-derived neurons and gliocytes are very interesting because of the relation to Alzheimer's dementia. However, human primary culture neurons and gliocytes cannot generally be used for experimental materials. IMR-32 cells were therefore used. The IMR-32 cells are human-derived neuroblastoma cells, and produce and secrete Aβ in the culture supernatant (Shinkei Kagaku (Neurochemistry) 33, 232 (1994)). In addition, Dr. Hironobu Suzuki et al. (Science, 264, 1336 (1994)) had developed an enzyme immunoassay method that can determine and distinguish between Aβ of 40 amino acids (Aβ (1-40)) and Aβ of 42 amino acids (Aβ (1-42)). This method was used to determine inhibitory activity of the test compound against Aβ production or secretion.
Human neuroblastoma IMR-32 cells were purchased from American Type Culture Collection (ATCC). Dulbecco's modified Eagle's medium (DMEM) was purchased from Nissui Pharmaceutical Co., Ltd., Japan. Fetal calf serum (hereinaftersometimes abbreviated as FCS) and a mixed solution of penicillin (5000 U/ml) and streptomycin (5 mg/ml) were purchased from Biowhittaker Inc. Phosphate buffered saline (PBS) was purchased from Flow Laboratories. Block Ace was purchased from Dainippon Pharmaceutical Co., Ltd. Bovine serum albumin (BSA) was purchased from Sigma. […]

IMR-32 cells [3] = assay: Evaluation of the cytotoxicity, lactate dehydrogenase (LDH) method, IMR-32 cells; assay type: cell-based, human; settings: 1×10^-4 (maximum concentration used)
Description: IMR-32 cells were cultured at 37° C. in 10% carbon dioxide/90% air using 10% FCS/DMEM culture solution in a flask (Falcon, 750 ml) until the confluent growth of the cells was obtained. Then, the cells were inoculated in a 48-well multi well plate at a density of 2.5×10^5 cells/well, and cultured for 5 days. […] The cells were cultured for 24 hours. […] The culture supernatant (10 μl) obtained after the assay of Aβ (1-40) was sampled, and the amount of LDH released from the cells was determined with a LDH assay kit (LDH C-II manufactured by Wako Pure Chemical Industries, Ltd.). Four wells were used per dose of the drug. The value in the data was represented as a ratio (%) to the control group. Dunnett's t test was used for the statistical analysis.

[4] = test system: guinea pig primary culture neurons
Description: Fetal brains were taken out from guinea pigs (SLC-Hartley) that was 28 days pregnant. The cerebral cortex and hippocampus were taken out under a stereoscopic microscope, and, after removing the meninges, were treated in Hank's Balanced Salt Solution (20 ml) containing 0.25% trypsin/0.01% DNase I for 10 minutes. FCS was added to stop the reaction, and the mixture was centrifuged. The cells were dispersed in DMEM culture solution (DMEM/N2 culture solution) containing insulin 5 μg/ml, transferrin 100 μg/ml, progesterone 20 nM, putrescine 100 μM and sodium selenite 30 nM. The dispersion was filtered through double lens paper, and the filtrate was centrifuged to collect the cells. The cells were dispersed in DMEM/N2 culture solution, and inoculated in a 24-well plate at a density of 1×10^-6 cells/well. On the second day from the beginning of the cultivation, the culture solution was replaced with DMEM/N2 culture solution containing cytosine arabinoside (1 μM). After the treatment for 3 days, the culture solution was replaced with DMEM/N2 culture solution. Thereafter, the culture solution was replaced every 2 to 3 days. […] After the culture supernatant was collected, DMEM culture solution (300 μl) containing 1.2 mM MTT was added. After the reaction was carried out at 37° C. for 1 hour, an equal amount of 10% sodium dodecyl sulfate solution was added.

[5] = test system: Aβ production or secretion in IMR-32 cells; assay: Inhibitory activity against Aβ production or secretion in human neuroblastoma IMR-32 cells (EIA); assay type: cell-based; settings: 24 hours, vs control group, mean of 4 wells, read-out: inhibition of Aβ production or secretion, based on the control group
Description: as §1
Human neuroblastoma IMR-32 cells were purchased from American Type Culture Collection (ATCC). Dulbecco's modified Eagle's medium (DMEM) was purchased from Nissui Pharmaceutical Co., Ltd., Japan. Fetal calf serum (hereinaftersometimes abbreviated as FCS) and a mixed solution of penicillin (5000 U/ml) and streptomycin (5 mg/ml) were purchased from Biowhittaker Inc. Phosphate buffered saline (PBS) was purchased from Flow Laboratories. Block Ace was purchased from Dainippon Pharmaceutical Co., Ltd. Bovine serum albumin (BSA) was purchased from Sigma. Flasks for culture and 48-well multi well plates were those manufactured by Falcon and Coster Corporation, respectively. Standard samples of Aβ (1-40) and Aβ (1-42) were purchased from Bachem. The other reagents used were commercially available highest quality goods.
IMR-32 cells were cultured at 37° C. in 10% carbon dioxide/90% air using 10% FCS/DMEM culture solution in a flask (Falcon, 750 ml) until the confluent growth of the cells was obtained. Then, the cells were inoculated in a 48-well multi well plate at a density of 2.5×10^5 cells/well, and cultured for 5 days. The culture solution was sucked off, and then DMEM/0.5% BSA (0.5 ml for the assay of Aβ (1-40) or 0.25 ml for the assay of Aβ (1-42)) was added. The cells were cultured for 24 hours.
In each case, the primary antibody was BAN-50 antibody that recognizes the N-terminal region of Aβ (1-40). BA-27 is an antibody prepared using Aβ (1-40) as an antigen, and recognizes the C-terminal region of Aβ (1-40). On the other hand, BC-05 antibody is an antibody prepared using Aβ (35-43) as an antigen, and recognizes the C-terminal region of Aβ (1-42) but not Aβ (1-40). Therefore, Aβ (1-40) can be assayed with a combination of BAN-50 antibody with BA-27 antibody, and Aβ (1-42) can be assayed with a combination of BAN-50 antibody with BC-05 antibody. […]

[6] = test system: Aβ (1-40) production and secretion in guinea pig primary culture neurons; assay: Inhibitory activity against Aβ (1-40) production and secretion in guinea pig primary culture neurons (EIA); assay type: cell-based; settings: 3×10^-5 M, 24 hours
Description: Aβ (1-40) and Aβ (1-42) in the culture supernatant were quantified in the same manner as that described in Experiment 1.

[7] = has been used as a medicament; cited from earlier work
secreted βAPP = settings: in vitro various cells; cited from earlier work
[8] = test system: Aβ production or secretion; settings: in vitro various cells; cited from earlier work

Structure (SMILES) | cytotoxicity (formazan formed from MTT) (IMR-32 cells [1]) | Aβ (1-42) production and secretion compared to the control group ([2]; 1×10^-5 M) | Aβ (1-42) production and secretion compared to the control group ([2]; 3×10^-6 M) | cytotoxicity (LDH activity in the culture supernatant) (IMR-32 cells [3]) | cytotoxicity (MTT) [4] | inhibition at 100 µM ([5]; 1×10^-4 M) [%] | inhibition at 10 µM ([5]; 1×10^-5 M) [%] | inhibition at 30 µM ([5]; 3×10^-5 M) [%] | inhibition at 3 µM ([5]; 3×10^-6 M) [%] | production or secretion of Aβ (1-40) [6] | toxic problems in use as a medicament [7] | secreted βAPP (secreted βAPP) | Aβ production or secretion [8]
CCOC(=O)C1=C[C@]2(CC)CCCN3CCc4c(n1c1ccccc41)[C@@H]32 [Vinpocetine, vinpocetine] | only slight cytotoxicity | showed a tendency to decrease | showed a tendency to decrease | only slight cytotoxicity | without any cytotoxicity | 45 | 30 | 40 | 10 | inhibited production or secretion of Aβ (1-40) | no toxic problems |  | 
C[N+](C)(C)CCOC(N)=O [carbacol] |  |  |  |  |  |  |  |  |  |  |  | increase the secreted βAPP | inhibit Aβ production or secretion
